Assay results from patent publication US20220125051A1, “PRE-HARVEST DESICCATION METHOD” (SYNGENTA CROP PROTECTION AG, priority 2019, published 2022).
Where two headings read alike, the source gives them in different places.

Assays:
Assay in all cases: Post-emergence efficacy, Method A
Assay type in all cases: in vivo
[1] = test system: Chenopodium album (CHEAL); details: Chenopodium album, post-emergence, 312 h, evaluated after 13 days
Procedure, shortened: (§1)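 Post-emergence spray on 14-day-old glasshouse plants (24/16 °C day/night, 14 h photoperiod, 65% humidity). Test material was taken up in acetone and IF50 emulsifier mix, then diluted with sodium lauryl ether sulphate (0.25% or 1%) plus 1% ammonium sulphate. Damage was rated 13 days later, 100 = total.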

Lolium perenne (LOLPE) = details: Lolium perenne, post-emergence, 312 h, evaluated after 13 days
Procedure, shortened: as §1

Eleusine indica (ELEIN) = details: Eleusine indica, post-emergence, 312 h, evaluated after 13 days
Procedure, shortened: as §1

[2] = test system: Digitaria sanguinalis (DIGSA); details: Digitaria sanguinalis, post-emergence, 312 h, evaluated after 13 days
Procedure, shortened: as §1

[3] = test system: Ipomoea hederacea (IPOHE); details: Ipomoea hederacea, post-emergence, 312 h, evaluated after 13 days
Procedure, shortened: as §1

[4] = test system: Echinochloa crus-galli (ECHCG); details: Echinochloa crus-galli, post-emergence, 312 h, evaluated after 13 days
Procedure, shortened: as §1

Setaria faberi (SETFA) = details: Setaria faberi, post-emergence, 312 h, evaluated after 13 days
Procedure, shortened: as §1

[5] = test system: Amaranthus palmeri (AMAPA); details: Amaranthus palmeri, post-emergence, 312 h, evaluated after 13 days
Procedure, shortened: as §1

[6] = test system: Euphorbia heterophylla (EPHHL); details: Euphorbia heterophylla, post-emergence, 312 h, evaluated after 13 days
Procedure, shortened: as §1

[7] = Application rate 500 g/Ha, 100=total damage to plant, 0=no damage to plant, read-out: Control of weed species after post-emergence application, CHEAL
[8] = Application rate 500 g/Ha, 100=total damage to plant, 0=no damage to plant, read-out: Control of weed species after post-emergence application, LOLPE
[9] = Application rate 500 g/Ha, 100=total damage to plant, 0=no damage to plant, read-out: Control of weed species after post-emergence application, ELEIN
[10] = Application rate 500 g/Ha, 100=total damage to plant, 0=no damage to plant, read-out: Control of weed species after post-emergence application, DIGSA
[11] = Application rate 500 g/Ha, 100=total damage to plant, 0=no damage to plant, read-out: Control of weed species after post-emergence application, IPOHE
[12] = Application rate 500 g/Ha, 100=total damage to plant, 0=no damage to plant, read-out: Control of weed species after post-emergence application, ECHCG
[13] = Application rate 500 g/Ha, 100=total damage to plant, 0=no damage to plant, read-out: Control of weed species after post-emergence application, SETFA
[14] = Application rate 500 g/Ha, 100=total damage to plant, 0=no damage to plant, read-out: Control of weed species after post-emergence application, AMAPA
[15] = Application rate 500 g/Ha, 100=total damage to plant, 0=no damage to plant, read-out: Control of weed species after post-emergence application, EPHHL

| SMILES | pest or weed control at 500 g/ha [1, 7] | pest or weed control at 500 g/ha (Lolium perenne (LOLPE); [8]) | pest or weed control at 500 g/ha (Eleusine indica (ELEIN); [9]) | pest or weed control at 500 g/ha [2, 10] | pest or weed control at 500 g/ha [3, 11] | pest or weed control at 500 g/ha [4, 12] | pest or weed control at 500 g/ha (Setaria faberi (SETFA); [13]) | pest or weed control at 500 g/ha [5, 14] | pest or weed control at 500 g/ha [6, 15] | pest or weed control at 500 g/ha ([1]; Application Rate 500 g/Ha, Method A, read-out: Control of weed species after post-emergence application, CHEAL (100=total damage to plant; 0=no damage to plant)) | pest or weed control at 500 g/ha (Lolium perenne (LOLPE); Application Rate 500 g/Ha, Method A, read-out: Control of weed species after post-emergence application, LOLPE (100=total damage to plant; 0=no damage to plant)) | pest or weed control at 500 g/ha (Eleusine indica (ELEIN); Application Rate 500 g/Ha, Method A, read-out: Control of weed species after post-emergence application, ELEIN (100=total damage to plant; 0=no damage to plant)) | pest or weed control at 500 g/ha ([2]; Application Rate 500 g/Ha, Method A, read-out: Control of weed species after post-emergence application, DIGSA (100=total damage to plant; 0=no damage to plant)) | pest or weed control at 500 g/ha ([3]; Application Rate 500 g/Ha, Method A, read-out: Control of weed species after post-emergence application, IPOHE (100=total damage to plant; 0=no damage to plant)) | pest or weed control at 500 g/ha ([4]; Application Rate 500 g/Ha, Method A, read-out: Control of weed species after post-emergence application, ECHCG (100=total damage to plant; 0=no damage to plant)) | pest or weed control at 500 g/ha (Setaria faberi (SETFA); Application Rate 500 g/Ha, Method A, read-out: Control of weed species after post-emergence application, SETFA (100=total damage to plant; 0=no damage to plant)) | pest or weed control at 500 g/ha ([5]; Application Rate 500 g/Ha, Method A, read-out: Control of weed species after post-emergence application, AMAPA (100=total damage to plant; 0=no damage to plant)) | pest or weed control at 500 g/ha ([6]; Application Rate 500 g/Ha, Method A, read-out: Control of weed species after post-emergence application, EPHHL (100=total damage to plant; 0=no damage to plant)) |
| --- | --- | --- | --- | --- | --- | --- | --- | --- | --- | --- | --- | --- | --- | --- | --- | --- | --- | --- |
| CCOP(=O)(CC[n+]1ccc(-c2ncccn2)cn1)OCC [Compound A124, 1-(2-diethoxyphosphorylethyl)-4-pyrimidin-2-yl-pyridazin-1-ium] | 0% | 0% | 0% | 10% | 0% | 0% | 20% | 0% | 0% |  |  |  |  |  |  |  |  |  |
| COC(=O)CC[n+]1ccc(-c2cccnn2)cn1 [Compound A139] | 100% | 90% | 100% | 100% | 10% | 100% | 100% | 80% | 90% |  |  |  |  |  |  |  |  |  |
| Nc1cnc(-c2cc[n+](CCC(=O)[O-])nc2)nc1 [Compound A44] | 10% | 20% | 20% | 40% | 20% | 30% | 60% | 40% | 20% |  |  |  |  |  |  |  |  |  |
| O=S(=O)(O)CCC[n+]1ccc(-c2cnccn2)cn1 [Compound A10] | 100% | 90% | 50% | 60% | 40% | 30% | 60% | 100% | 100% |  |  |  |  |  |  |  |  |  |
| COC(=O)CC[n+]1ccc(-c2ncccn2)cn1 [Compound A54, methyl 3-(4-pyrimidin-2-ylpyridazin-1-ium-1-yl)propanoate 2,2,2-trifluoroacetate] | 90% | 70% | 100% | 100% | 10% | 90% | 100% | 90% | 70% |  |  |  |  |  |  |  |  |  |
| O=S(=O)([O-])CC[n+]1ccc(-c2ncccc2C(F)(F)F)cn1 [Compound A140] | 50% | 0% | 10% | 10% | 20% | 20% | 30% | 60% | 50% |  |  |  |  |  |  |  |  |  |
| Nc1cc(-c2cc[n+](CCC(=O)O)nc2)nc(N)n1 [Compound A188] |  |  |  |  |  |  |  |  |  | 50% | 20% | 20% | 40% | 20% | 50% | 30% | 90% | 30% |
